Active and inactive are the calls of the source. The rule behind the calls is not given here.
Key:
Macrophage [1] = assay: Modulation of GM-CSF-driven human macrophage differentiation assessed as induction of LPS-stimulated IL-10 production in at 1 to 100 ug/ml after 20 hrs; format: functional, cell-based
Macrophage [2] = assay: Modulation of GM-CSF-driven human macrophage differentiation assessed as induction of LPS-stimulated IL-12p40 production in at 1 to 100 ug/ml after 20 hrs; format: functional, cell-based
Macrophage [3] = assay: Modulation of GM-CSF-driven human macrophage differentiation assessed as induction of LPS-stimulated TNFalpha production in at 1 to 100 ug/ml after 20 hrs; format: functional, cell-based
Macrophage [4] = assay: Modulation of GM-CSF-driven human macrophage differentiation assessed as induction of LTA-stimulated IL-10 production in at 1 to 100 ug/ml after 20 hrs; format: functional, cell-based
Macrophage [5] = assay: Modulation of GM-CSF-driven human macrophage differentiation assessed as induction of LTA-stimulated IL-12p40 production in at 1 to 100 ug/ml after 20 hrs; format: functional, cell-based
Macrophage [6] = assay: Modulation of GM-CSF-driven human macrophage differentiation assessed as induction of LTA-stimulated TNFalpha production in at 1 to 100 ug/ml after 20 hrs; format: functional, cell-based
Macrophage [7] = assay: Modulation of GM-CSF-driven human macrophage differentiation assessed as induction of heat killed Candida albicans-stimulated IL-10 production in at 1 to 100 ug/ml after 20 hrs; format: functional, cell-based
Macrophage [8] = assay: Modulation of GM-CSF-driven human macrophage differentiation assessed as induction of heat killed Candida albicans-stimulated IL-12p40 production in at 10 ug/ml after 20 hrs; format: functional, cell-based
Macrophage [9] = assay: Modulation of GM-CSF-driven human macrophage differentiation assessed as induction of heat killed Candida albicans-stimulated TNFalpha production in at 1 to 100 ug/ml after 20 hrs; format: functional, cell-based
Macrophage [10] = assay: Modulation of GM-CSF-driven human macrophage differentiation assessed as induction of 0.1 ng/ml LPS-stimulatedIL-10 production at 100 ug/ml after 20 hrs; format: functional, cell-based
Macrophage [11] = assay: Modulation of GM-CSF-driven human macrophage differentiation assessed as induction of CD14 expression in at 100 ug/ml after 7 days by flow cytometry; format: functional, cell-based
[12] = Modulation of GM-CSF-driven human macrophage differentiation assessed as induction of TLR4 expression in at 100 ug/ml after 7 days by flow cytometry; format: functional, cell-based
Macrophage [13] = assay: Modulation of GM-CSF-driven human macrophage differentiation assessed as induction of 10 ng/ml LTA-stimulatedMCP1 production at 100 ug/ml after 20 hrs; format: functional, cell-based
Macrophage [14] = assay: Modulation of GM-CSF-driven human macrophage differentiation assessed as induction of 1 ng/ml LTA-stimulatedMCP1 production at 100 ug/ml after 20 hrs; format: functional, cell-based
[15] = Modulation of GM-CSF-driven human macrophage differentiation assessed as induction of TLR2 expression in at 100 ug/ml after 7 days by flow cytometry; format: functional, cell-based
Macrophage [16] = assay: Modulation of GM-CSF-driven human macrophage differentiation assessed as induction of 1x10^6 CFU heat-killed Candida albicans cells-stimulated TNF-alpha production at 100 ug/ml after 20 hrs; format: functional, cell-based
[17] = Modulation of GM-CSF-driven human macrophage differentiation assessed as induction of dectin-1 expression at 100 ug/ml after 7 days by flow cytometry; format: functional, cell-based
Macrophage [18] = assay: Modulation of GM-CSF-driven human macrophage differentiation assessed as induction of CD206 expression at 100 ug/ml after 7 days by flow cytometry; format: functional, cell-based
Macrophage [19] = assay: Modulation of GM-CSF-driven human macrophage differentiation assessed as induction of CD11b expression at 100 ug/ml after 7 days by flow cytometry; format: functional, cell-based
Candida albicans [20] = assay: Antimicrobial activity against Candida albicans infected in human macrophage assessed as fungus phagocytosing compound-treated macrophages at 15 mins by FACS analysis (reference value: 13%); format: functional
Candida albicans [21] = assay: Antimicrobial activity against Candida albicans infected in human macrophage assessed as fungus phagocytosing compound-treated macrophages at 30 mins by FACS analysis (reference value: 28%); format: functional
Staphylococcus aureus [22] = assay: Antimicrobial activity against Staphylococcus aureus LUH2141 infected in human macrophage assessed as bacteria phagocytosing macrophages at 60 mins by FACS analysis (reference value: 30%); format: functional
Staphylococcus aureus [23] = assay: Antimicrobial activity against Staphylococcus aureus LUH2141 infected in human macrophage assessed as bacteria phagocytosing macrophages at 120 mins by FACS analysis (reference value: 66%); format: functional
Candida albicans [24] = assay: Antimicrobial activity against Candida albicans infected in human macrophage assessed as fungal clearance at 60 mins by FACS analysis (reference value: 56%); format: functional, organism-based
Staphylococcus aureus [25] = assay: Antimicrobial activity against Staphylococcus aureus LUH2141 infected in human macrophage at 60 mins by FACS analysis (reference value: 9%); format: functional, organism-based
Staphylococcus aureus [26] = assay: Antimicrobial activity against Staphylococcus aureus LUH2141 infected in human macrophage at 120 mins by FACS analysis (reference value: 17%); format: functional, organism-based
Monocyte [27] = assay: Modulation of GM-CSF-driven human monocytes differentiation assessed as induction of LPS-induced IL-10 production after 10 mins; format: functional, cell-based
Monocyte [28] = assay: Modulation of GM-CSF-driven human monocytes differentiation assessed as induction of LPS-induced IL-10 production after 60 mins; format: functional, cell-based
Monocyte [29] = assay: Modulation of GM-CSF-driven human monocytes differentiation assessed as induction of LPS-induced IL-10 production after 7 days; format: functional, cell-based
Candida albicans [30] = assay: Antimicrobial activity against Candida albicans infected in human macrophage assessed as induction of phagocytosis of fungus after 10 mins by flow cytometry; format: functional, organism-based
Candida albicans [31] = assay: Antimicrobial activity against Candida albicans infected in human macrophage assessed as induction of phagocytosis of fungus after 60 mins by flow cytometry; format: functional, organism-based
Candida albicans [32] = assay: Antimicrobial activity against Candida albicans infected in human macrophage assessed as fungus phagocytosing compound-treated macrophages at 60 mins by FACS analysis (reference value: 47%); format: functional

## H-GRRRRSVQWCA-OH
Macrophage [1]
  Activity: Active
Macrophage [2]
  Activity: inactive
Macrophage [3]
  Activity: inactive
Macrophage [4]
  Activity: Active
Macrophage [5]
  Activity: Active
Macrophage [6]
  Activity: inactive
Macrophage [7]
  Activity: Active
Macrophage [8]
  Activity: Active
Macrophage [9]
  Activity: Active
Macrophage [10]
  Activity: Active
Macrophage [11]
  Activity: Active
[12]
  Activity: Active
Macrophage [13]
  Activity: Active
Macrophage [14]
  Activity: Active
[15]
  Activity: inactive
Macrophage [16]
  Activity: Active
[17]
  Activity: Active
Macrophage [18]
  Activity: Active
Macrophage [19]
  Activity: inactive
Candida albicans [20]
  Activity: 22%
Candida albicans [21]
  Activity: 41%
Staphylococcus aureus [22]
  Activity: 49%
Staphylococcus aureus [23]
  Activity: 72%
Candida albicans [24]
  Activity: Active
Staphylococcus aureus [25]
  Activity: Active
Staphylococcus aureus [26]
  Activity: Active
Monocyte [27]
  Activity: inactive
Monocyte [28]
  Activity: Active
Monocyte [29]
  Activity: Active
Candida albicans [30]
  Activity: inactive
Candida albicans [31]
  Activity: Active
Candida albicans [32]
  Activity: 54%

Source: ChEMBL document CHEMBL1212787, “Antimicrobial peptide hLF1-11 directs granulocyte-macrophage colony-stimulating factor-driven monocyte differentiation toward macrophages with enhanced recognition and clearance of pathogens” (2010)
